Target: T1, STK16 (PKL12) (Homo sapiens, UniProt O75716)
T1 construct: purchased Thermo Fisher Scientific (Life Technologies) SelectScreen
Assay: SelectScreen LanthaScreen
Type: binding
Settings: read-out: % displacement
Summary of the method: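 SelectScreen broad panel; activity (Z'LYTE, Adapta) plus binding formats. ATP: Km app for CSF1R Z'LYTE; 10 for CAMK1 Adapta. Readout = % per kinase.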

T1 sequence (O75716 whole entry): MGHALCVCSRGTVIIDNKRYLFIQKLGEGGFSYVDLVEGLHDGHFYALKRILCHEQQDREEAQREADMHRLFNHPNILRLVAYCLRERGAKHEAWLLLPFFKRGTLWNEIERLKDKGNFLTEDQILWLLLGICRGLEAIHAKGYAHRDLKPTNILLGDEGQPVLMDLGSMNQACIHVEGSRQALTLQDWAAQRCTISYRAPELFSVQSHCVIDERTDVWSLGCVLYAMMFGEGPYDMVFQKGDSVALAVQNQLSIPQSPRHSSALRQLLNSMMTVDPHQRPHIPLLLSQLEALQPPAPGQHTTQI

CN(C(=O)CN1CCOCC1)c1ccc2sc3c(-c4cccc5c(=O)cc(N6CC7CCC(C6)O7)oc45)cccc3c2c1 [NU5455]
inhibition at 1 µM: 10.5%

— paper PMC6934184, “Selective DNA-PKcs inhibition extends the therapeutic index of localized radiotherapy and chemotherapy” (The Journal of Clinical Investigation, 2019)
